Experiments:
Type in all cases: functional
A498 = experiment: Growth inhibition of human A498 cells assessed as cell growth at 1 uM after 48 hrs by SRB assay; details: A498, 48 h, read-out: Activity
DU-145 = experiment: Growth inhibition of human DU145 cells assessed as cell growth at 1 uM after 48 hrs by SRB assay; details: DU-145, 48 h, read-out: Activity
BT-549 [1] = experiment: Growth inhibition of human BT549 cells assessed as cell growth at 1 uM after 48 hrs by SRB assay; details: BT-549, 48 h, read-out: Activity
EKVX = experiment: Growth inhibition of human EKVX cells assessed as cell growth at 10 uM after 48 hrs by SRB assay; details: read-out: Activity
NCI-H522 = experiment: Growth inhibition of human NCI-H522 cells assessed as cell growth at 10 uM after 48 hrs by SRB assay; details: NCI-H522, 48 h, read-out: Activity
SF-539 = experiment: Growth inhibition of human SF539 cells assessed as cell growth at 10 uM after 48 hrs by SRB assay; details: SF-539, 48 h, read-out: Activity
SF-268 = experiment: Growth inhibition of human SF268 cells after 48 hrs by […] growth inhibition assay; details: SF-268, 48 h
NCI-H460 [2] = experiment: Growth inhibition of human NCI-H460 cells assessed as cell growth at 0.1 uM after 48 hrs by SRB assay; details: NCI-H460, 48 h, read-out: Activity
HT-29 = experiment: Growth inhibition of human HT-29 cells assessed as cell growth at 0.1 uM after 48 hrs by SRB assay; details: HT-29, 48 h, read-out: Activity
SNB-19 = experiment: Growth inhibition of human SNB19 cells assessed as cell growth at 0.1 uM after 48 hrs by SRB assay; details: SNB-19, 48 h, read-out: Activity
UACC-257 = experiment: Growth inhibition of human UACC257 cells assessed as cell growth at 0.1 uM after 48 hrs by SRB assay; details: UACC-257, 48 h, read-out: Activity
OVCAR-4 = experiment: Growth inhibition of human OVCAR4 cells assessed as cell growth at 0.1 uM after 48 hrs by SRB assay; details: OVCAR-4, 48 h, read-out: Activity
786-0 [3] = experiment: Growth inhibition of human 786-0 cells assessed as cell growth at 0.1 uM after 48 hrs by SRB assay; details: 786-0, 48 h, read-out: Activity
SN12C [4] = experiment: Growth inhibition of human SN12C cells assessed as cell growth at 0.1 uM after 48 hrs by SRB assay; details: read-out: Activity
Malme-3M = experiment: Growth inhibition of human MALME-3M cells assessed as cell growth at 10 uM after 48 hrs by SRB assay; details: read-out: Activity
SK-MEL-2 [5] = experiment: Growth inhibition of human SK-MEL-2 cells assessed as cell growth at 10 uM after 48 hrs by SRB assay; details: SK-MEL-2, 48 h, read-out: Activity
SK-MEL-5 = experiment: Growth inhibition of human SK-MEL-5 cells assessed as cell growth at 10 uM after 48 hrs by SRB assay; details: SK-MEL-5, 48 h, read-out: Activity
786-0 [6] = experiment: Growth inhibition of human 786-0 cells assessed as cell growth at 10 uM after 48 hrs by SRB assay; details: 786-0, 48 h, read-out: Activity
SN12C [7] = experiment: Growth inhibition of human SN12C cells assessed as cell growth at 10 uM after 48 hrs by SRB assay; details: read-out: Activity
HOP-92 = experiment: Growth inhibition of human HOP92 cells assessed as cell growth at 100 uM after 48 hrs by SRB assay; details: HOP-92, 48 h, read-out: Activity
NCI-H23 = experiment: Growth inhibition of human NCI-H23 cells assessed as cell growth at 100 uM after 48 hrs by SRB assay; details: NCI-H23, 48 h, read-out: Activity
COLO 205 = experiment: Growth inhibition of human COLO205 cells assessed as cell growth at 100 uM after 48 hrs by SRB assay; details: COLO 205, 48 h, read-out: Activity
OVCAR-3 = experiment: Growth inhibition of human OVCAR3 cells assessed as cell growth at 100 uM after 48 hrs by SRB assay; details: OVCAR-3, 48 h, read-out: Activity
SN12C [8] = experiment: Growth inhibition of human SN12C cells assessed as cell growth at 100 uM after 48 hrs by SRB assay; details: read-out: Activity
CCRF-CEM [9] = experiment: Growth inhibition of human CCRF-CEM cells assessed as cell growth at 1 mM after 48 hrs by SRB assay; details: read-out: Activity
A549 = experiment: Growth inhibition of human A549 cells assessed as cell growth at 1 mM after 48 hrs by SRB assay; details: A549, 48 h, read-out: Activity
NCI-H460 [10] = experiment: Growth inhibition of human NCI-H460 cells assessed as cell growth at 1 mM after 48 hrs by SRB assay; details: NCI-H460, 48 h, read-out: Activity
HCT-116 = experiment: Growth inhibition of human HCT116 cells assessed as cell growth at 1 mM after 48 hrs by SRB assay; details: HCT-116, 48 h, read-out: Activity
SNB-75 = experiment: Growth inhibition of human SNB75 cells assessed as cell growth at 1 mM after 48 hrs by SRB assay; details: SNB-75, 48 h, read-out: Activity
SK-MEL-2 [11] = experiment: Growth inhibition of human SK-MEL-2 cells assessed as cell growth at 1 mM after 48 hrs by SRB assay; details: SK-MEL-2, 48 h, read-out: Activity
OVCAR-5 = experiment: Growth inhibition of human OVCAR5 cells assessed as cell growth at 1 mM after 48 hrs by SRB assay; details: OVCAR-5, 48 h, read-out: Activity
SK-OV-3 = experiment: Growth inhibition of human SKOV3 cells assessed as cell growth at 1 mM after 48 hrs by SRB assay; details: SK-OV-3, 48 h, read-out: Activity
CAKI-1 = experiment: Growth inhibition of human Caki1 cells assessed as cell growth at 1 mM after 48 hrs by SRB assay; details: CAKI-1, 48 h, read-out: Activity
UO-31 = experiment: Growth inhibition of human UO31 cells assessed as cell growth at 1 mM after 48 hrs by SRB assay; details: UO-31, 48 h, read-out: Activity
BT-549 [12] = experiment: Growth inhibition of human BT549 cells assessed as cell growth at 0.1 uM after 48 hrs by SRB assay; details: BT-549, 48 h, read-out: Activity
CCRF-CEM [13] = experiment: Growth inhibition of human CCRF-CEM cells assessed as cell growth at 1 uM after 48 hrs by SRB assay; details: read-out: Activity
U-251 = experiment: Growth inhibition of human U251 cells assessed as cell growth at 1 uM after 48 hrs by SRB assay; details: U-251, 48 h, read-out: Activity
SW-620 = experiment: Growth inhibition of human SW620 cells assessed as cell growth at 10 uM after 48 hrs by SRB assay; details: SW-620, 48 h, read-out: Activity

## CNC(=O)NC[C@H]1O[C@@H](n2cnc3c(NC(=O)Nc4ccccc4)ncnc32)[C@H](O[Si](C)(C)C(C)(C)C)[C@@H]1O[Si](C)(C)C(C)(C)C
A498
  growth at 1 µM: 97%
DU-145
  growth at 1 µM: 107%
BT-549 [1]
  growth at 1 µM: 112%
EKVX
  growth at 10 µM: 104%
NCI-H522
  growth at 10 µM: 90%
SF-539
  growth at 10 µM: 91%
SF-268; read-out: GI50
  GI50: 3.58 µM
SF-268; read-out: LC50 (the source's name)
  CC50: > 100 µM
SF-268; read-out: TGI
  TGI: 14 µM
SF-268; read-out: pGI50 (converted)
  GI50: 3.55 µM
SF-268; read-out: pLC50 (the source's name) (converted)
  CC50: > 100 µM
SF-268; read-out: pTGI (converted)
  TGI: 14.1 µM
NCI-H460 [2]
  growth at 0.1 µM: 104%
HT-29
  growth at 0.1 µM: 102%
SNB-19
  growth at 0.1 µM: 97%
UACC-257
  growth at 0.1 µM: 97%
OVCAR-4
  growth at 0.1 µM: 106%
786-0 [3]
  growth at 0.1 µM: 108%
SN12C [4]
  growth at 0.1 µM: 100%
Malme-3M
  growth at 10 µM: 96%
SK-MEL-2 [5]
  growth at 10 µM: 105%
SK-MEL-5
  growth at 10 µM: 89%
786-0 [6]
  growth at 10 µM: 110%
SN12C [7]
  growth at 10 µM: 98%
HOP-92
  growth at 100 µM: -28%
NCI-H23
  growth at 100 µM: -5%
COLO 205
  growth at 100 µM: -95%
OVCAR-3
  growth at 100 µM: -39%
SN12C [8]
  growth at 100 µM: -87%
CCRF-CEM [9]
  growth at 1000 µM: 4%
A549
  growth at 1000 µM: -30%
NCI-H460 [10]
  growth at 1000 µM: -75%
HCT-116
  growth at 1000 µM: -100%
SNB-75
  growth at 1000 µM: -12%
SK-MEL-2 [11]
  growth at 1000 µM: -67%
OVCAR-5
  growth at 1000 µM: -43%
SK-OV-3
  growth at 1000 µM: 8%
CAKI-1
  growth at 1000 µM: -33%
UO-31
  growth at 1000 µM: -21%
BT-549 [12]
  growth at 0.1 µM: 113%
CCRF-CEM [13]
  growth at 1 µM: 109%
U-251
  growth at 1 µM: 102%

## CNC(=O)OC[C@H]1O[C@@H](n2cnc3c(NC(=O)Nc4ccccc4)ncnc32)[C@H](O[Si](C)(C)C(C)(C)C)[C@@H]1O[Si](C)(C)C(C)(C)C
EKVX
  growth at 10 µM: 104%
NCI-H522
  growth at 10 µM: 52.6%
SW-620
  growth at 10 µM: 98%
SF-539
  growth at 10 µM: 97.1%
Malme-3M
  growth at 10 µM: 114%
SK-MEL-2 [5]
  growth at 10 µM: 82.9%
SK-MEL-5
  growth at 10 µM: 101%
786-0 [6]
  growth at 10 µM: 94.6%
SN12C [7]
  growth at 10 µM: 101%
